How the values were obtained:
[1] = biological target: Aβ40 (Homo sapiens, UniProt P05067); assay: ThT Aβ aggregation assay (kinetic Thioflavin T fluorescence); type: biochemical; settings: 20 μM Aβ, DMSO control at 80 hr = 0% inhibition, number in parenthesis = compound ID 1027 in that experiment; for inhibition at 5 µM: 80 h, read-out: % inhib Thioflavin T Aβ 40 (5 μm); for inhibition at 10 µM: read-out: % inhib Thioflavin T Aβ 40 10 μM
Description: Preparation of Aβ40 Stock Solutions
Aβ40 (1.0 mg) was pre-treated in a 1.5 mL microfuge tube with HFIP (1 mL) and sonicated for 20 min to disassemble any pre-formed Aβ aggregates. The HFIP was removed with a stream of argon and the Aβ dissolved in Tris base (5.8 mL, 20 mM, pH ˜10). The pH was adjusted to 7.4 with concentrated HCl (˜10 μL) and the solution filtered using a syringe filter (0.2 μm) before being used.
The kinetic ThT assay for Aβ aggregation is similar to that of Chalifour et al (Chalifour et al, 2003, J. Biol. Chem. 278:34874-81). Briefly, pre-treated Aβ40 or Aβ42 (40 μM in 20 mM Tris, pH 7.4) was diluted with an equal volume of 8 μM Thioflavin T (ThT) in Tris (20 mM, pH 7.4, 300 mM NaCl). Aliquots of Aβ/ThT (200 μL) were added to wells of a black polystyrene 96-well plate, followed by 2 μL of a compound in DMSO (variable concentration), or DMSO alone (controls). Incubations were performed in triplicate and were taken to contain 20 μM Aβ, various concentration of compound in 20 mM Tris, pH 7.4, 150 mM NaCl, 1% DMSO. Plates were covered with clear polystyrene lids and incubated at 37° C. in a Tecan Genios microplate reader.
Analysis of ThT and ThS Aggregation Assays
Fluorescence readings (λex=450 nm, λem=480 nm) were taken every 15 min., after first shaking at high intensity for 15 s and allowing to settle for 10 s before each reading. Active compounds attenuated the increase in fluorescence over time that occurred in controls. In FIGS. 1-7, the time this procedure was performed extended to 80 hours (rightmost part of X-axis), at which point fluorescence increase generally reached an asymptote. Applying a definition of DMSO control at 80 hr as 100% aggregation (0% inhibition) and DMSO control at 0 hr as 0% aggregation (100% inhibition), a % inhibition score where higher is better can be calculated for a given concentration of compound. By repeating this procedure over several concentrations, a […] (IC50) can be measured, as is given in the table below for some compounds.

[2] = biological target: Terminally biotinylated beta-amyloid (Aβ42) (Homo sapiens, UniProt P05067); assay: Aβ42 biotinylated (biotin-AB) oligomerization assay, NeutrAvidin capture ELISA; type: biochemical; settings: approximate value; 1 hr oligomerization at room temperature; read-out: IC50 Aβ 42-bio
Terminally biotinylated beta-amyloid (Aβ42), sequence (P05067 672-713, species assumed): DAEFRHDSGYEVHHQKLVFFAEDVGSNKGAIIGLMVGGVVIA
Method in brief: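 Biotin-Aβ42, pretreated with HFIP/TFA to remove seeds, oligomerized 1 h at room temperature with compound in 20 mM sodium phosphate pH 7.5, 150 mM NaCl (DMSO up to 1%). Oligomers captured on NeutrAvidin plates, detected with streptavidin-HRP/TMB at 450 nm; IC50 approximate, in µM.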

[3] = compound 5 μm (so in the source)

Aβ40, sequence (P05067 672-711, species assumed): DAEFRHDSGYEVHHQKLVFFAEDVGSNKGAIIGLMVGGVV

Structure (SMILES) | inhibition at 5 µM [1, 3] | inhibition at 10 µM ([1]; compound 10 μM) | IC50 [2] | % inhib Thioflavin T Aβ 40 10 μM ([1]; compound 10 μM) | % inhib Thioflavin T Aβ 40 (5 μm) [1, 3]
COC(c1cc(N2CC(CN3CCCC3)C2)c2nonc2c1)C(F)(F)F (centres unmarked) [compound 1539] | 53% | 55% | 7.8 µM | – | –
FC(F)(F)Oc1ccccc1-c1cc(N2CC(CN3CCCC3)C2)c2nonc2c1 [compound 1495] | – | 64% | 5.91 µM | – | –
Clc1ccc(-c2cc(N3CC(CN4CCCC4)C3)c3nonc3c2)cn1 [compound 1496] | – | 41% | 13.5 µM | – | –
c1ccc(Oc2ccc(-c3cc(N4CC(CN5CCCC5)C4)c4nonc4c3)cc2)cc1 [compound 1491] | – | 32% | 0.52 µM | – | –
N#Cc1cccc(-c2cc(N3CC(CN4CCCC4)C3)c3nonc3c2)c1 [compound 1493] | – | 57% | 12.9 µM | – | –
OC(c1ccc(-c2cc(N3CCC(N4CCCC4)CC3)c3nonc3c2)cc1)C(F)(F)F (centres unmarked) [compound 1468] | 44% | 65% | 2.4 µM | – | –
O=C(C1CN(c2cc(-c3cccc(C(O)C(F)(F)F)c3)cc3nonc23)C1)N1CCCC1 (centres unmarked) [compound 1498] | – | 48% | 10.8 µM | – | –
CC(=O)c1ccc(-c2cc(N3CC(CN4CCCC4)C3)c3nonc3c2)cc1 [compound 1512] | – | 77% | 12 µM | – | –
Cc1cc(C)cc(-c2cc(N3CC(CN4CCCC4)C3)c3nonc3c2)c1 [compound 1506] | – | 44% | 4.44 µM | – | –
OC(c1ccccc1-c1cc(N2CC(CN3CCOCC3)C2)c2nonc2c1)C(F)(F)F (centres unmarked) [compound 1471] | – | 29% | 4.4 µM | – | –
COc1ccc(-c2cc(N3CC(CN4CCCC4)C3)c3nonc3c2)cc1Cl [compound 1492] | – | 22% | 4.8 µM | – | –
c1ccc(Oc2ccccc2-c2cc(N3CC(CN4CCCC4)C3)c3nonc3c2)cc1 [compound 1504] | – | 72% | 5.27 µM | – | –
COc1ccc(-c2cc(N3CC(CN4CCCC4)C3)c3nonc3c2)cc1C [compound 1488] | – | 31% | 8.69 µM | – | –
Clc1cc(Cl)cc(-c2cc(N3CC(CN4CCCC4)C3)c3nonc3c2)c1 [compound 1478] | – | 63% | 1.82 µM | – | –
FC(F)(F)c1ccccc1-c1cc(N2CC(CN3CCCC3)C2)c2nonc2c1 [compound 1514] | – | 57% | 11.2 µM | – | –
OC(c1ccc(-c2cc(N3CCC(N4CCCC4)CC3)c3nonc3c2)s1)C(F)(F)F (centres unmarked) [compound 1464] | – | 35% | > 20 µM | – | –
CC(=O)N1CC=C(c2cc(N3CC(CN4CCCC4)C3)c3nonc3c2)CC1 [compound 1503] | – | 33% | > 20 µM | – | –
CSc1ccccc1-c1cc(N2CC(CN3CCCC3)C2)c2nonc2c1 [compound 1532] | – | 68% | 27.1 µM | – | –
O=C(NC1CC1)c1cc(N2CC(CN3CCCC3)C2)c2nonc2c1 [compound 1541] | 19% | 31% | 4 µM | – | –
c1cc(-c2cc(N3CC(CN4CCCC4)C3)c3nonc3c2)n[nH]1 [compound 1525] | – | 63% | 13.2 µM | – | –
CC(C)(C)c1ccc(-c2cc(N3CC(CN4CCCC4)C3)c3nonc3c2)cc1 [compound 1487] | – | 33% | 0.62 µM | – | –
CS(=O)(=O)N1CCC=C(c2cc(N3CC(CN4CCCC4)C3)c3nonc3c2)C1 [compound 1522] | – | 44% | 10.1 µM | – | –
OCc1ccccc1-c1cc(N2CC(CN3CCCC3)C2)c2nonc2c1 [compound 1499] | – | 34% | 23.3 µM | – | –
c1cc(-c2cc(N3CC(CN4CCCC4)C3)c3nonc3c2)ccn1 [compound 1528] | – | 50% | 7.8 µM | – | –
CC(C)c1ccc(-c2cc(N3CC(CN4CCCC4)C3)c3nonc3c2)cc1 [compound 1489] | – | 34% | 1.6 µM | – | –

Structure (SMILES) | inhibition at 5 µM [1, 3] | inhibition at 10 µM ([1]; compound 10 μM) | IC50 [2] | % inhib Thioflavin T Aβ 40 10 μM ([1]; compound 10 μM) | % inhib Thioflavin T Aβ 40 (5 μm) [1, 3]
CC(=O)N1C=C(c2cc(N3CC(CN4CCCC4)C3)c3nonc3c2)CCC1 [compound 1534] | – | 67% | 3.5 µM | – | –
CC(=O)c1cccc(-c2cc(N3CC(CN4CCCC4)C3)c3nonc3c2)c1 [compound 1480] | – | 31% | 6.33 µM | – | –
OC(c1ccc(-c2cc(N3CC(CN4CCCC4)C3)c3nonc3c2)s1)C(F)(F)F (centres unmarked) [compound 1543] | 63% | 84% | 1.1 µM | – | –
COc1cccc(-c2cc(N3CC(CN4CCCC4)C3)c3nonc3c2)c1OC [compound 1500] | – | 51% | > 20 µM | – | –
Cn1cc(-c2cc(N3CC(CN4CCCC4)C3)c3nonc3c2)cn1 [compound 1527] | – | 49% | 7.5 µM | – | –
OC(c1ccccc1-c1cc(N2CCC(N3CCCC3)CC2)c2nonc2c1)C(F)(F)F (centres unmarked) [compound 1467] | 28% | 43% | 5.1 µM | – | –
OC(c1cc(-c2cc(N3CC(CN4CCCC4)C3)c3nonc3c2)cs1)C(F)(F)F (centres unmarked) [compound 1537] | – | – | 3.5 µM | 74% | 71%
CN(CCCN1CCCC1)c1cc(-c2cccc(C(O)C(F)(F)F)c2)cc2nonc12 (centres unmarked) [compound 1469] | 70% | 75% | 2.4 µM | – | –
CS(=O)(=O)N1C=C(c2cc(N3CC(CN4CCCC4)C3)c3nonc3c2)CCC1 [compound 1533] | – | 35% | 5.6 µM | – | –
c1n[nH]cc1-c1cc(N2CC(CN3CCCC3)C2)c2nonc2c1 [compound 1526] | – | 60% | 5.8 µM | – | –
c1cc(N2CC(CN3CCCC3)C2)c2nonc2c1 [compound 1473] | – | 31% | 18.1 µM | – | –
CCCc1ccc(-c2cc(N3CC(CN4CCCC4)C3)c3nonc3c2)cc1 [compound 1507] | – | 83% | 2.46 µM | – | –
Cc1ccc(-c2cc(N3CC(CN4CCCC4)C3)c3nonc3c2)c2ccccc12 [compound 1494] | – | 45% | 2.01 µM | – | –
CN(C)C(=O)c1cccc(-c2cc(N3CC(CN4CCCC4)C3)c3nonc3c2)c1 [compound 1531] | – | 45% | 2.7 µM | – | –
FC(F)(F)c1cccc(-c2cc(N3CC(CN4CCCC4)C3)c3nonc3c2)c1 [compound 1484] | – | 56% | 6.5 µM | – | –
Cn1nccc1-c1cc(N2CC(CN3CCCC3)C2)c2nonc2c1 [compound 1536] | 43% | 61% | 4.2 µM | – | –
OC(c1cc(-c2cc(N3CC(CN4CCCC4)C3)c3nonc3c2)cs1)C(F)(F)F (centres unmarked) [compound 1535] | 71% | 77% | 2.9 µM | – | –
Clc1cccc(-c2cc(N3CC(CN4CCCC4)C3)c3nonc3c2)c1 [compound 1505] | – | 62% | 4.62 µM | – | –
CN(C)C1CCN(c2cc(-c3cccc(C(O)C(F)(F)F)c3)cc3nonc23)CC1 (centres unmarked) [compound 1466] | 37% | – | 4.1 µM | – | –
Brc1cc(N2CC(CN3CCCC3)C2)c2nonc2c1 [compound 1472, 6-bromo-4-(3-(pyrrolidin-1-ylmethyl)azetidin-1-yl)benzo[c][1,2,5]oxadiazole] | – | 65% | 3.6 µM | – | –
COc1ccc(-c2cc(N3CC(CN4CCCC4)C3)c3nonc3c2)c(OC)c1 [compound 1515] | – | 61% | 16.7 µM | – | –
COc1ccc(-c2cc(N3CC(CN4CCCC4)C3)c3nonc3c2)cc1OC [compound 1483] | – | 36% | 8.21 µM | – | –
COCCN1CCC=C(c2cc(N3CC(CN4CCCC4)C3)c3nonc3c2)C1 [compound 1523] | – | 55% | 1.3 µM | – | –
CC(=O)Nc1ccc(-c2cc(N3CC(CN4CCCC4)C3)c3nonc3c2)cc1 [compound 1482] | – | 41% | 5.52 µM | – | –

— patent US9938249B2, “Anti-amyloid compounds containing benzofurazan” (Treventis Corporation, priority 2014, dated 2018)
